In patent US7846902B2, “Dipeptide-comprising composition for oral administration” (Kyowa Hakko Bio Co., Ltd., priority 2005, dated 2010):
Peptide text beside a SMILES is read from it.

Details: 37° C., 2 hours
Protocol: 10 μL of the resultant dipeptide solution was mixed with 4 μL of blood plasma or 4 μL of water, and was incubated at 37° C. for 2 hours. The mixture solution after incubation was applied to a TLC plate (manufactured by Merck Ltd.), and developed with a solution containing butanol (Kishida Chemical Co., Ltd.), acetic acid (Kishida Chemical Co., Ltd.) and water in a ratio of 2:1:1. A 1% ninhydrin solution was sprayed onto the mixture, which was then incubated at 80° C. for 5 minutes. Incidentally, the 1% ninhydrin solution was prepared by dissolving ninhydrin (Wako Pure Chemical Industries, Ltd.) in ethanol (Kishida Chemical Co., Ltd.).

TLC spots when mixed with water, single spot alone:
CC[C@H](C)[C@H](NC(=O)[C@H](C)N)C(=O)O [Alanyl-Isoleucine, alanyl-isoleucine] (H-Ala-Ile-OH)
CC(C)C[C@H](NC(=O)[C@H](C)N)C(=O)O [Alanyl-Leucine, alanyl-leucine] (H-Ala-Leu-OH)
CC(C)[C@H](NC(=O)[C@H](C)N)C(=O)O [Alanyl-Valine, alanyl-valine] (H-Ala-Val-OH)
